Measurements from patent US10011573B2, “Human androgen receptor DNA-binding domain (DBD) compounds as therapeutics and methods for their use” (The University of British Columbia, priority 2014, dated 2018).

How the values were obtained:
[1] = tested on: PSA; assay: Prostate-specific antigen (PSA) assay, secreted PSA from the eGFP assay plates; assay type: cell-based, human; settings: Homo sapiens
Description: 3. Prostate-specific antigen (PSA) assay: The evaluation of PSA levels secreted into the media was performed in parallel to the eGFP assay using the same plates. After cells were incubated for 3 days, 150 μl of the media was taken from each well, and added to 150 μl of PBS.

[2] = tested on: PC3 cells; assay: Cell viability (MTS) assay, PC3; assay type: cell-based, human; settings: 0.1 nM R1881
Description: 1. Cell Culture: LNCaP and PC3 human prostate cancer cells were obtained from American Type Culture Collection (ATCC, Manassas, Va.) and grown in RPMI 1640 medium supplemented with 5% fetal bovine serum (FBS) (Invitrogen). […]. All cells were maintained at 37° C. in 5% CO2.
7. Cell viability assay: The PC3, LNCaP, and MDV3100-resistant cells were plated at 3,000 cells per well in RPMI 1640 containing 5% charcoal stripped serum (CSS) in a 96-well plate, treated with 0.1 nM R1881 and compounds (0-25 μM) for 96 hrs.

[3] = target: T1, AR Q592D mutant (Homo sapiens, UniProt P10275, Q592D); assay: ARR3tk-luciferase reporter assay in PC3 cells, AR Q592D; assay type: cell-based
T1 construct: Full-length human AR (hARWT) or splice variant (AR-V7) was encoded on a pcDNA3.1 expression plasmid; expressed in transfected cells; host or cells: PC3
Description: 8. Mutation Studies: The residues in the predicted binding site were mutated using the Quickchange™ Site-Directed Mutagenesis Kit as per the instructions.
9. Transient Transfection: The PC3/MCF7 cells were seeded into a 96-well plate (2,000 cells/well). After 24 hrs, the wild-type AR (50 ng/well)/AR mutants and AR3TK-luciferase plasmids (1:3) were co-transfected into PC3 cells or ERE-luciferase (50 ng/well) was transfected into MCF7 cells using transfection reagent TT20. 24 hrs after the transfection, the cells were treated with the compounds at various concentrations. And 24 hrs later, the cells were lysed and the reading was taken using a luminometer.

[4] = tested on: AR v567es; assay: ARR3tk-luciferase assay in R1-D567 cells; assay type: cell-based, human
[5] = tested on: FKBP5; assay: Western blot FKBP5 protein in R1-AD1 cells; assay type: cell-based, human
Description: Cell lysates (40 μl) from luciferase assays (96-well plate) were separated on a 10% SDS-polyacrylamide mini gel. Protein was transferred to methanol-charged PVDF membranes and probed with anti-AR441 (mouse, Sigma™) monoclonal primary antibody. Blots were also probed with polyclonal anti-actin (rabbit, Sigma™) to show equal loading and polyclonal anti-PARP/anti-cleaved PARP (rabbit, Sigma™) to test for induction of apoptosis. Lysates from CWR-R1 cells were additionally probed with polyclonal anti-FKBP5 (rabbit, Sigma™) following 2 days of incubation with compounds.

[6] = target: T2, YFP-AR (Homo sapiens, UniProt P10275); assay: Luciferase assay with YFP-AR in PC3 cells; assay type: cell-based
T2 construct: plasmids encoding YFP-tagged full-length AR (yellow fluorescent protein, YFP-AR); expressed in transfected cells; host or cells: PC3
T2 sequence (P10275 1-920): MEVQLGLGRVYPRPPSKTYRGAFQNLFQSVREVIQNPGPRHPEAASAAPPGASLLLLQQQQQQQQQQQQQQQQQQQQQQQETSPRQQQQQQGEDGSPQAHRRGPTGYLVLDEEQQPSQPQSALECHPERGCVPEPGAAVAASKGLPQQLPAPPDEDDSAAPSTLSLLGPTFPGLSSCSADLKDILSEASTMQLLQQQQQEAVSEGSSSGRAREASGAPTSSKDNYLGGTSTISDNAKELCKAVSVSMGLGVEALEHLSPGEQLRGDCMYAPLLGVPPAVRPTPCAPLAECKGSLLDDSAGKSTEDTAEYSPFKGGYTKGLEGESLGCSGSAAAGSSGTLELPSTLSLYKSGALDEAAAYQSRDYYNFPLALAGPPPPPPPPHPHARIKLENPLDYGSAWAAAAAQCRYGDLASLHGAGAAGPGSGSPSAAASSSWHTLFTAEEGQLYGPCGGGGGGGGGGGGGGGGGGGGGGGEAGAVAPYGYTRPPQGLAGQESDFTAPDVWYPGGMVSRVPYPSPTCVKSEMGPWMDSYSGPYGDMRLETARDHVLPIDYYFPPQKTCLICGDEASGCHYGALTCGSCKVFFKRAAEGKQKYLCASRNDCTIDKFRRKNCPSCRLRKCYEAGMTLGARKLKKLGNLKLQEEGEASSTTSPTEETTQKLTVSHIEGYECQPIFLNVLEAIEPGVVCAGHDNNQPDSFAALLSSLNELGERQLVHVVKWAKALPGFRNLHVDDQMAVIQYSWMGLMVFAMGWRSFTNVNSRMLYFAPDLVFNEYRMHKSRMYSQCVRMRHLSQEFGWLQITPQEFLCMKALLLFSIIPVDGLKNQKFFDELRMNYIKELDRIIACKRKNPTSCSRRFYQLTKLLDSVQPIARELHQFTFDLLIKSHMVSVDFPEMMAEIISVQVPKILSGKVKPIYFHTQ
Source text: the underlined primer sections anneal to the specified template, although their 5′-extensions (italicized) are complementary to the corresponding primer sequence of the other PCR. Plasmid assembly is achieved by mixing the PCR products from each reaction (Klock, H. E. et al. (2008) Combining the polymerase incomplete primer extension method for cloning and mutagenesis with microscreening to accelerate structural genomics efforts. Proteins 71, 982-994), followed by transformation into chemically competent bacteria. A similar strategy was used to clone the AR-DBD+hinge into the Pan4 vector (avidity) expressing the N-terminal biotinylation sequence ([…] ) and C-terminal His tag. YFP-AR plasmid was a gift from Dr. Jan Trapman (van Royen, M. E. et al. (2012) Stepwise androgen receptor dimerization. J. Cell Sci. 125, 1970-1979) and is based on pEYFP-C1 (Clontech™). YFP-V7 was constructed by polymerase incomplete primer extension method using the following primers and templates: AR-V7 insert from pcDNA3. AR-V7 template

[7] = LNCaP eGFP cells, R1881, secreted PSA

T1 sequence (P10275 whole entry Q592D, canonical isoform): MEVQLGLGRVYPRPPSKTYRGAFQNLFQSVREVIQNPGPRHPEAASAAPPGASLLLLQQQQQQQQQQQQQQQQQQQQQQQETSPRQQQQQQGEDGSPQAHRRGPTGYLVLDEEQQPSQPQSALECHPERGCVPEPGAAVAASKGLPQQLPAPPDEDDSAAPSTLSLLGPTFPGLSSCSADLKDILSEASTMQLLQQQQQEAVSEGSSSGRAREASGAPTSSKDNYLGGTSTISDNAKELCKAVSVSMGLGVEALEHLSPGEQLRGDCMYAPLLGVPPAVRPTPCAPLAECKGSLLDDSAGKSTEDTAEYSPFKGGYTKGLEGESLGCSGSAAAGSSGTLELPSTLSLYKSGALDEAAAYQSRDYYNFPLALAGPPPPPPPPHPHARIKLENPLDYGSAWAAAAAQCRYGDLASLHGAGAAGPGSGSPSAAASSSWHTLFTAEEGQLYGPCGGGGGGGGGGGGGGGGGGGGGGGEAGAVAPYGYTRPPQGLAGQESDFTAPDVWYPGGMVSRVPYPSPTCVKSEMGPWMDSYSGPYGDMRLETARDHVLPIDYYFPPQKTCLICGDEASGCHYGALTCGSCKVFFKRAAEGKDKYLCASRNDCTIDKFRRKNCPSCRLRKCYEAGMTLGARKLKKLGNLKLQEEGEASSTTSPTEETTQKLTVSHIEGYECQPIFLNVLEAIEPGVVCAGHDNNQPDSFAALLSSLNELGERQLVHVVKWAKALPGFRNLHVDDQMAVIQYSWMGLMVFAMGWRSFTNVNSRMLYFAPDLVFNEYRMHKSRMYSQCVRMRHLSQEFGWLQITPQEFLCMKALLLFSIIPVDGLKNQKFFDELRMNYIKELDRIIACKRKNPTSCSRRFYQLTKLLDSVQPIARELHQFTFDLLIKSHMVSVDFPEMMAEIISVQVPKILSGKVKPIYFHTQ

Compound	IC50 [1, 7] [nM]	IC50 ([1]; Series 1) [nM]	inhibition of cell growth, PC3 (AR-negative) [2]	inhibition of Q592D AR luciferase expression [3]	inhibition of AR v567es transcriptional activity [4]	FKBP5 protein expression, R1-AD1 cells [5]	inhibition of YFP-AR driven luciferase expression [6]	concentration at which Q592D AR is inhibited ([3]; PC3 cells) [µM]
c1ccc(-c2csc(N3CCOCC3)n2)cc1 [Compound 14228, 4-(4-phenylthiazol-2-yl)morpholine]	188	280	no effect	not affected	could inhibit	reduced	could be inhibited	–
Brc1ncn(-c2csc(N3CCOCC3)n2)c1Br [Compound 14449]	170	170	ineffective	–	could inhibit	reduced	could be inhibited	≥ 25
